The term solubility denotes the dissolved amount per volume that the medium holds.

Series [1] in a line: Phosphate-buffered saline (PBS) solubility of compounds. Type of series: physicochemical. Conditions: aqueous buffer, thermodynamic from solid, PBS pH 7.5, 0.5 mg/mL, vortexed 90 min, filtered, LC-MS/MS, read-out: Solubility Range. The protocol: PBS solutions (pH 7.5) were prepared according to the following compositions and stored at 4° C. Test compounds were dissolved in PBS (pH 7.5) at 0.5 mg/mL and vortexed for 90 min. The PBS solution was sequentially filtered through a 0.45, 1.2, […] syringe filter. Concentration of test compounds were determined using LC-MS/MS with appropriate dilution of the samples.

The next series concerns the target human wild type-CFTR (Homo sapiens, UniProt P13569). Nature of the series: Cell-based YFP assay. On the set-up: expressed in transfected cells; host or cells: CHO-K1 (Chinese hamster ovary). Conditions: CHO-K1 cells expressing human wild type-CFTR and YFP-H148Q/I152L; forskolin 20 μM = 100% activity; read-out: Cell-based YFP Assay (EC50) Concentration Range. An outline of the steps:
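CHO-K1 cells co-expressing human wild-type CFTR and YFP-H148Q/I152L halide sensor, grown 48 h at 37 °C, then in PBS. YFP quenching by I⁻ influx read at 37 °C after adding 140 mM I⁻ solution, sampled every 0.4 s for 14 s. Triplicates averaged; EC50 fitted.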

Converted amounts (≈) assume the structure as drawn.

human wild type-CFTR, sequence (P13569 whole entry): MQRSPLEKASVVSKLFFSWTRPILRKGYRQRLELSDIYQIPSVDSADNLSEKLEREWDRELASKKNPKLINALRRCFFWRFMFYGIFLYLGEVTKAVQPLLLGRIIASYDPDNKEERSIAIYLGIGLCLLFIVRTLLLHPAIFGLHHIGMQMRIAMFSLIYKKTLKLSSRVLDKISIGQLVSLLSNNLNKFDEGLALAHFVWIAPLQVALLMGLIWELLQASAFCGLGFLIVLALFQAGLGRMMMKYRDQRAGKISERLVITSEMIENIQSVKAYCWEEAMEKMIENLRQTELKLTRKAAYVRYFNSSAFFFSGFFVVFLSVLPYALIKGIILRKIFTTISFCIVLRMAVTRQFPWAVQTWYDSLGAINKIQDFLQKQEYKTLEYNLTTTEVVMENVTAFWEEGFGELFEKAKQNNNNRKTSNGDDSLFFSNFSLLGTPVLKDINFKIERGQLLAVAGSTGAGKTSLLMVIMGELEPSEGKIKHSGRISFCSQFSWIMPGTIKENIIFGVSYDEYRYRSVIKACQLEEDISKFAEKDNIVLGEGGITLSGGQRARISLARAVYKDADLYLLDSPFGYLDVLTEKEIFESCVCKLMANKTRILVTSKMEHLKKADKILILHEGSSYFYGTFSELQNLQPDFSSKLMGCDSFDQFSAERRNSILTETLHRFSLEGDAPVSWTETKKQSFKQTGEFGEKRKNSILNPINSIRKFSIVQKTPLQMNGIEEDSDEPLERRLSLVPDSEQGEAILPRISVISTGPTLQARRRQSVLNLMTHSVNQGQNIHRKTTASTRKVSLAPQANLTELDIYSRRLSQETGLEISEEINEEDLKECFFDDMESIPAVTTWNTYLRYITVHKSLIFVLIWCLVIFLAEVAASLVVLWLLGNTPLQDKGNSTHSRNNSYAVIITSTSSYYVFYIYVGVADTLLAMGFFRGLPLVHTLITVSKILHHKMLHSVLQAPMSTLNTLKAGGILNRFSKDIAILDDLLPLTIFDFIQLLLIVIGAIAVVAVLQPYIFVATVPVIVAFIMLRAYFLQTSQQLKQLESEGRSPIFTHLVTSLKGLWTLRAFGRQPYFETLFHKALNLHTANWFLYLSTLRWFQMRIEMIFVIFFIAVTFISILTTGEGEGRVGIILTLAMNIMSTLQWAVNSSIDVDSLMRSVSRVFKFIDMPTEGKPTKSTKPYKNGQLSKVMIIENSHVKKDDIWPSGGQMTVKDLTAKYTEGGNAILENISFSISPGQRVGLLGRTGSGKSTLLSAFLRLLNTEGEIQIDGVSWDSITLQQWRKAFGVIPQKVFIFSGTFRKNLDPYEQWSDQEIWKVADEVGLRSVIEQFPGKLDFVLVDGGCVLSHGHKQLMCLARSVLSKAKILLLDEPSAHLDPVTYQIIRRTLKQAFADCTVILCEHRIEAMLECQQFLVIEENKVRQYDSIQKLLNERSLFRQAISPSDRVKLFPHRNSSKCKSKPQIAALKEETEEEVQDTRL

For the compound `COC(=O)[C@H](CC(C)C)NC(=O)c1ccc(NC(=O)c2cc3nccc(-c4ccc(OC)c(OC)c4)n3n2)cc1` [Compound 57, methyl (4-(7-(3,4-dimethoxyphenyl)pyrazolo [1,5-a]pyrimidine-2-carboxamido)benzoyl)-L-leucinate], the solubility at 90 min in series [1] is < 0.1 µg/mL. On human wild type-CFTR, the EC50 is < 0.2 µM.
For the compound `COC(=O)[C@@H](NC(=O)c1ccc(NC(=O)c2cc3nccc(-c4ccc(OC)c(OC)c4)n3n2)cc1)C(C)C` [Compound 58, methyl (4-(7-(3,4-dimethoxyphenyl)pyrazolo [1,5-a]pyrimidine-2-carboxamido)benzoyl)-L-valinate], in series [1], the solubility at 90 min was < 0.1 µg/mL. At human wild type-CFTR, the EC50 is < 0.2 µM.
For `COc1ccc(-c2ccnc3cc(C(=O)N4CCN(C(=O)OC(C)(C)C)CC4)nn23)cc1OC` [Compound 62, tert-butyl 4-(7-(3,4-dimethoxyphenyl)pyrazolo[1,5-a]pyrimidine-2-carbonyl)piperazine-1-carboxylate] the same measures were 0.1 to 10 µg/mL (≈ 0.214 to 21.4 µM) and 0.2 to 2 µM.
As to `COc1ccc(-c2ccnc3cc(C(=O)NC4CCN(C(=O)OC(C)(C)C)CC4)nn23)cc1OC` [Compound 63, tert-butyl 4-(7-(3,4-dimethoxyphenyl)pyrazolo[1,5-a]pyrimidine-2-carboxamido)piperidine-1-carboxylate], the solubility at 90 min in series [1] was 0.1 to 10 µg/mL (≈ 0.208 to 20.8 µM). Besides, the EC50 on human wild type-CFTR lay within 0.2 to 2 µM.
For `COC(=O)C1CN(C(=O)c2ccc(NC(=O)c3cc4nccc(-c5ccc(OC)c(OC)c5)n4n3)cc2)C1` [Compound 65, methyl 1-(4-(7-(3,4-dimethoxyphenyl)pyrazolo[1,5-a]pyrimidine-2-carboxamido)benzoyl) azetidine-3-carboxylate] the same measures were < 0.1 µg/mL and < 0.2 µM.
In the case of `COc1ccc(-c2ccnc3cc(C(=O)N[C@H]4CC[C@@H](C(=O)N5CCN(C(=O)OC(C)(C)C)CC5)CC4)nn23)cc1OC` [Compound 73, tert-butyl 4-((1S,4S)-4-(7-(3,4-dimethoxyphenyl)pyrazolo [1,5-a]pyrimidine-2-carboxamido)cyclohexane-1-carbonyl)piperazine-1-carboxylate], in series [1], the solubility at 90 min was 0.1 to 10 µg/mL (≈ 0.169 to 16.9 µM). Besides, the EC50 at human wild type-CFTR was in the range of 0.2 to 2 µM.
For `COc1ccc(-c2ccnc3cc(C(=O)N[C@H]4CC[C@H](C(=O)N5CCOCC5)CC4)nn23)cc1OC` [Compound 75, 7-(3,4-dimethoxyphenyl)-N-((1R,4R)-4-(morpholine-4-carbonyl)cyclohexyl) pyrazolo[1,5-a]pyrimidine-2-carboxamide] the same measures were > 10 µg/mL and ≥ 2 µM.
Consider `COc1ccc(-c2ccnc3cc(C(=O)N[C@H]4CC[C@H](C(=O)N5CCN(C(=O)OC(C)(C)C)CC5)CC4)nn23)cc1OC` [Compound 76, tert-butyl 4-((1R,4R)-4-(7-(3,4-dimethoxyphenyl)pyrazolo [1,5-a]pyrimidine-2-carboxamido)cyclohexane-1-carbonyl)piperazine-1-carboxylate], for which the solubility at 90 min in series [1] was 0.1 to 10 µg/mL (≈ 0.169 to 16.9 µM). For the same compound, the EC50 on human wild type-CFTR was 0.2 to 2 µM.
As for `COc1ccc(-c2ccnc3cc(C(=O)Nc4ccc(C(=O)N[C@@H](CC(C)C)C(=O)O)cc4)nn23)cc1OC` [Compound 85, (4-(7-(3,4-dimethoxyphenyl)pyrazolo[1,5-a]pyrimidine-2-carboxamido)benzoyl)-L-leucine], the solubility at 90 min in series [1] was > 10 µg/mL. Also, the EC50 at human wild type-CFTR is 0.2 to 2 µM.
On the same counts, the results for `COc1ccc(-c2ccnc3cc(C(=O)NC45CC(C(=O)N6CCN(C(=O)OC(C)(C)C)CC6)(C4)C5)nn23)cc1OC` [Compound 92, tert-butyl 4-(3-(7-(3,4-dimethoxyphenyl)pyrazolo [1,5-a]pyrimidine-2-carboxamido)bicyclo [1.1.1]pentane-1-carbonyl)piperazine-1-carboxylate] are < 0.1 µg/mL and < 0.2 µM.
On the same counts, the results for `CCOc1ccc(NC(=O)Nc2cc3nccc(-c4ccc(OC)c(OC)c4)n3n2)cc1` [Compound 109, 1-(7-(3,4-dimethoxyphenyl)pyrazolo[1,5-a]pyrimidin-2-yl)-3-(4-ethoxyphenyl)urea] are < 0.1 µg/mL and 0.2 to 2 µM.

Source of the values: patent US20240199623A1 (ILDONG PHARMACEUTICAL CO., LTD., priority 2020, published 2024).
